{"source": "patent US6026817A", "about": "“Method of treating the syndrome of coronary heart disease risk factors in humans” (priority 1998, dated 2000)", "key": {"[1]": {"test_system": "patients with prolactin-producing tumors of the pituitary gland", "conditions": "cited from earlier work"}, "[2]": {"test_system": "insulin resistant subject", "assay": "Example I: metyrosine given to an insulin resistant subject, fasting blood values", "format": "in vivo, human", "experimental": "A insulin resistant subject was given 250 mg metyrosine twice daily."}, "[3]": {"test_system": "experimental brain trauma", "conditions": "in vivo; cited from earlier work"}, "adult male rats": {"test_system": "adult male rats", "conditions": "intracisternal administration, conscious rats, dose related; cited from earlier work"}, "[4]": {"conditions": "8 weeks of 250 mg twice daily vs initial"}, "[5]": {"conditions": "initial levels, before treatment"}}}
{"compound": "CC(C)C[C@H]1C(=O)N2CCC[C@H]2[C@]2(O)O[C@](NC(=O)[C@@H]3C=C4c5cccc6[nH]c(Br)c(c56)C[C@H]4N(C)C3)(C(C)C)C(=O)N12", "note": "[bromocriptine, 2-bromo-α-ergocryptine]", "values": [{"measurement": "glucose tolerance", "setting": "[1]", "result": "improves glucose tolerance"}, {"measurement": "insulin values", "setting": "[1]", "result": "decreases insulin values toward normal"}]}
{"compound": "C[C@](N)(Cc1ccc(O)cc1)C(=O)O", "note": "[metyrosine, α-methyltyrosine]", "values": [{"measurement": "Chol. Tot", "setting": "[2]; 4 weeks after discontinuation", "result": 254, "unit": "mg/dL"}, {"measurement": "FFA", "setting": "[2]; 4 weeks after discontinuation", "result": 747, "unit": "μE/ml"}, {"measurement": "Glucose", "setting": "[2]; 4 weeks after discontinuation", "result": 122, "unit": "mg/dL"}, {"measurement": "HDL", "setting": "[2]; 4 weeks after discontinuation", "result": 37, "unit": "mg/dL"}, {"measurement": "Insulin", "setting": "[2]; 4 weeks after discontinuation", "result": 15, "unit": "μU/ml"}, {"measurement": "LDL", "setting": "[2]; 4 weeks after discontinuation", "result": 189, "unit": "mg/dL"}, {"measurement": "LDL/HDL", "setting": "[2]; 4 weeks after discontinuation", "result": 5.1}, {"measurement": "TG", "setting": "[2]; 4 weeks after discontinuation", "result": 211, "unit": "mg/dL"}, {"measurement": "all values after discontinuation of the treatment regimen", "setting": "[2]; 4 weeks following discontinuation", "result": "returned essentially to their pre-study levels"}, {"measurement": "Chol. Tot", "setting": "[2]; 8 weeks of 250 mg twice daily", "result": 209, "unit": "mg/dL"}, {"measurement": "Glucose", "setting": "[2]; 8 weeks of 250 mg twice daily", "result": 110, "unit": "mg/dL"}, {"measurement": "HDL", "setting": "[2]; 8 weeks of 250 mg twice daily", "result": 27, "unit": "mg/dL"}, {"measurement": "Insulin", "setting": "[2]; 8 weeks of 250 mg twice daily", "result": 13, "unit": "μU/ml"}, {"measurement": "LDL", "setting": "[2]; 8 weeks of 250 mg twice daily", "result": 134, "unit": "mg/dL"}, {"measurement": "LDL/HDL", "setting": "[2]; 8 weeks of 250 mg twice daily", "result": 5.0}, {"measurement": "TG", "setting": "[2]; 8 weeks of 250 mg twice daily", "result": 144, "unit": "mg/dL"}, {"measurement": "free fatty acids (FFA)", "setting": "[2]; 8 weeks of 250 mg twice daily", "result": 575, "unit": "μE/L"}, {"measurement": "FFA", "setting": "[2]; 8 weeks of 250 mg twice daily (Table I)", "result": 575, "unit": "μE/ml"}, {"measurement": "decrease of HDL", "setting": "[2]; [4]", "result": 34, "unit": "%"}, {"measurement": "decrease of LDL", "setting": "[2]; [4]", "result": 24, "unit": "%"}, {"measurement": "decrease of fasting blood glucose level (BGL)", "setting": "[2]; [4]", "result": 10, "unit": "%"}, {"measurement": "decrease of free fatty acids (FFA)", "setting": "[2]; [4]", "result": 23, "unit": "%"}, {"measurement": "decrease of insulin", "setting": "[2]; [4]", "result": 32, "unit": "%"}, {"measurement": "decrease of total cholesterol (TCH)", "setting": "[2]; [4]", "result": 30, "unit": "%"}, {"measurement": "decrease of triglycerides (TG)", "setting": "[2]; [4]", "result": 31, "unit": "%"}, {"measurement": "HDL", "setting": "[2]; 14 weeks of 250 mg twice daily", "result": 39, "unit": "mg/dL"}, {"measurement": "LDL", "setting": "[2]; 14 weeks of 250 mg twice daily", "result": 119, "unit": "mg/dL"}, {"measurement": "LDL/HDL", "setting": "[2]; 14 weeks of 250 mg twice daily", "result": 3.1}, {"measurement": "total reduction of LDL from the beginning of the study", "setting": "[2]; 14 weeks of 250 mg twice daily", "result": 32, "unit": "%"}, {"measurement": "free fatty acids (FFA)", "setting": "[2]; initial level", "result": 742, "unit": "μE/L"}, {"measurement": "Chol. Tot", "setting": "[2]; [5]", "result": 299, "unit": "mg/dL"}, {"measurement": "Glucose", "setting": "[2]; [5]", "result": 121, "unit": "mg/dL"}, {"measurement": "HDL", "setting": "[2]; [5]", "result": 41, "unit": "mg/dL"}, {"measurement": "Insulin", "setting": "[2]; [5]", "result": 19, "unit": "μU/ml"}, {"measurement": "LDL", "setting": "[2]; [5]", "result": 176, "unit": "mg/dL"}, {"measurement": "LDL/HDL", "setting": "[2]; [5]", "result": 4.3}, {"measurement": "TG", "setting": "[2]; [5]", "result": 208, "unit": "mg/dL"}, {"measurement": "FFA", "setting": "[2]; initial levels, before treatment (Table I)", "result": 742, "unit": "μE/ml"}, {"measurement": "body weight", "setting": "[2]; week 8", "result": "slight decrease"}]}
{"compound": "Oc1ccc2c3c1O[C@H]1c4[nH]c5c(c4C[C@@]4(O)[C@@H](C2)N(CC2CC2)CC[C@]314)C[C@@]1(O)[C@H]2Cc3ccc(O)c4c3[C@@]1(CCN2CC1CC1)[C@H]5O4", "note": "[nor-binaltorphimine]", "values": [{"measurement": "outcome after experimental brain trauma", "setting": "[3]", "result": "improves the outcome"}]}
{"compound": "β-endorphin: synthetic human β-endorphin (YGGFMTSEKSQTPLVTLFKNAIIKNAYKKGE; Beta-endorphin; UniProt P01189 237-267, looked up)", "values": [{"measurement": "plasma concentrations of catecholamines", "setting": "adult male rats", "result": "increased plasma concentrations of epinephrine, norepinephine, and dopamine"}]}
